# Assay results from the supplement of paper PMC10307832.
# Key:
# Test in all cases: relative viability (nuclei count vs DMSO), 5 days (fraction); higher = more cells survive
# Ibrutinib + Luminespib = compound: C=CC(=O)N1CCC[C@@H](n2nc(-c3ccc(Oc4ccccc4)cc3)c3c(N)ncnc32)C1 [Ibrutinib] + CCNC(=O)c1noc(-c2cc(C(C)C)c(O)cc2O)c1-c1ccc(CN2CCOCC2)cc1 [Luminespib] (partner 0.01 µM)
# Procedure, shortened: (§1)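 A single step with final 0.05% Triton X-100, 1% formaldehyde and 1 ug/ml Hoechst fixed the cells and stained nuclei 5 days after treatment. Lung cancer cell lines in 1536-well plates had been treated by pin tool the day after seeding with one drug alone or a fixed anchor-drug dose plus five library-drug doses (not always all listed) in √10 steps, and nuclei were counted on 4× images. Relative viability is the ratio of nuclei in treated wells to nuclei in vehicle wells, taken as the median of duplicate plates.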
# BMX-IN-1 + Foretinib = compound: C=CC(=O)Nc1cc(-n2c(=O)ccc3cnc4ccc(-c5ccc(NS(C)(=O)=O)cc5)cc4c32)ccc1C [BMX-IN-1] + COc1cc2c(Oc3ccc(NC(=O)C4(C(=O)Nc5ccc(F)cc5)CC4)cc3F)ccnc2cc1OCCCN1CCOCC1 [Foretinib] (partner 0.25 µM)
# Procedure, shortened: as §1
# PAC-1 + OSI-027 = compound: C=CCc1cccc(/C=N/NC(=O)CN2CCN(Cc3ccccc3)CC2)c1O [PAC-1] + COc1cccc2cc(-c3nc([C@H]4CC[C@H](C(=O)O)CC4)n4ncnc(N)c34)[nH]c12 [OSI-027] (partner 0.5 µM)
# Procedure, shortened: as §1
# Ibrutinib + Pemetrexed = compound: C=CC(=O)N1CCC[C@@H](n2nc(-c3ccc(Oc4ccccc4)cc3)c3c(N)ncnc32)C1 [Ibrutinib] + Nc1nc2[nH]cc(CCc3ccc(C(=O)N[C@@H](CCC(=O)O)C(=O)O)cc3)c2c(=O)[nH]1 [Pemetrexed] (partner 0.2 µM)
# Procedure, shortened: as §1
Cell Line,relative viability (Ibrutinib + Luminespib; first compound 0.005 µM),relative viability (Ibrutinib + Luminespib; first compound 0.01581 µM),relative viability (Ibrutinib + Luminespib; first compound 0.05 µM),relative viability (Ibrutinib + Luminespib; first compound 0.1581 µM),relative viability (Ibrutinib + Luminespib; first compound 0.5 µM),relative viability (BMX-IN-1 + Foretinib; first compound 0.02 µM),relative viability (BMX-IN-1 + Foretinib; first compound 0.2 µM),relative viability (BMX-IN-1 + Foretinib; first compound 0.6325 µM),relative viability (BMX-IN-1 + Foretinib; first compound 2 µM),relative viability (PAC-1 + OSI-027; first compound 0.02 µM),relative viability (PAC-1 + OSI-027; first compound 0.06325 µM),relative viability (PAC-1 + OSI-027; first compound 0.2 µM),relative viability (PAC-1 + OSI-027; first compound 2 µM),relative viability (Ibrutinib + Pemetrexed; first compound 0.005 µM),relative viability (Ibrutinib + Pemetrexed; first compound 0.01581 µM),relative viability (Ibrutinib + Pemetrexed; first compound 0.05 µM),relative viability (Ibrutinib + Pemetrexed; first compound 0.1581 µM),relative viability (Ibrutinib + Pemetrexed; first compound 0.5 µM)
NCI-H1623,0.382,0.505,0.486,0.414,0.304,0.853,1.02,0.798,0.788,0.455,0.446,0.442,0.448,–,–,–,–,–
HOP-62,–,0.881,0.958,0.935,0.918,1.26,1.27,1.09,1.1,0.836,0.814,0.782,0.892,0.415,0.32,0.434,0.446,0.879
NCI-H727,–,0.597,0.282,–,0.516,1.37,0.933,0.893,1.01,0.641,0.689,0.619,0.622,–,–,–,–,–
ChaGo-K-1,0.586,0.409,0.53,0.655,0.556,1.09,0.938,0.821,0.915,0.623,0.617,0.57,0.635,0.254,0.263,0.264,0.261,0.271
BEN,–,0.292,0.318,0.307,0.462,0.635,0.698,0.619,0.819,0.303,0.264,0.291,0.289,0.489,0.757,0.637,0.469,0.785
NCI-H596,–,0.894,0.77,0.959,0.805,0.953,1.25,0.872,0.714,0.733,0.745,0.695,0.719,0.499,0.487,0.482,0.409,0.543
LU99A,0.191,0.24,0.285,0.249,0.248,0.828,0.776,0.842,0.817,0.303,0.314,0.257,0.3,0.217,0.211,0.205,0.206,0.412
NCI-H460,0.0343,0.0329,0.0328,0.0586,0.0349,1.22,1.09,1.11,1.06,0.582,0.727,0.626,0.637,0.0608,0.0607,0.0632,0.0616,0.1
NCI-H1648,–,–,–,–,–,–,–,–,–,0.239,0.264,0.27,0.317,0.796,0.655,0.569,0.961,0.751
HCC-44,1.11,1.02,0.977,–,1.16,–,–,–,–,0.486,0.62,0.607,0.585,0.711,0.669,0.624,0.64,0.987
